Laboratory results: US5747235A, “Silver halide light sensitive emulsion layer having enhanced photographic sensitivity” (Eastman Kodak Company, priority 1996, dated 1998)
Structures can show the parent of a compound that is named as a salt.

Key:
[1] = Example 7: photographic speed and fog with/without HB3, 365 nm exposure, emulsion T-2
Protocol: (§1) For photographic evaluation, each of the coating strips was exposed for 0.1 sec to a 365 nm emission line of a Hg lamp filtered through a Kodak Wratten filter number 18A and a step wedge ranging in density from 0 to 4 density units in 0.2 density steps. The exposed film strips were developed for 6 min in Kodak Rapid X-ray Developer (KRX). S365, relative sensitivity at 365 nm, was evaluated at a density of 0.2 units above fog.
An AgBrI tabular silver halide emulsion (Emulsion T-2) was prepared containing 4.05% total I distributed such that the central portion of the emulsion grains contained 1.5% I and the perimeter area contained substantially higher I, as described by Chang et. al., U.S. Pat. No. 5,314,793. […] This emulsion was precipitated using deionized gelatin. The emulsion was sulfur sensitized by adding 8.5×10^-6 mole 1,3-dicarboxymethyl-1,3-dimethyl-2-thiourea /mole Ag at 40° C.; the temperature was then raised to 60° C. at a rate of 5° C./3 min and the emulsions held for 20 min before cooling to 40° C. The chemically sensitized emulsion was then used to prepare coatings containing the fragmentable two-electron donor compounds. […] Where present, the blue sensitizing dye D-I or the red sensitizing dye D-II were added from methanol solution to the emulsion at 40° C. after the chemical sensitization and disulfocatechol addition. The fragmentable two-electron donor compounds were added to the emulsion at 40° C. and the coatings were prepared and tested as described in Example 1, except that the additional gelatin used to prepare the coatings described in Table III was deionized gelatin.
Where present the blue sensitizing dye D-I or the red sensitizing dye D-II were added from methanol solution to the emulsion at 40° C. after the chemical sensitization and disulfocatechol addition. The fragmentable two-electron donating compounds were then added to the emulsion and coatings prepared as described in Example 1, except that the additional gelatin used to prepare the coatings described in Table VII was deionized gelatin. The coatings were tested for their response to a 365 nm exposure as described in Example 1.

[2] = Example 8: photographic speed and fog, 365 nm exposure, cubic emulsion C-1; parameters: Fog: unit not given here
Protocol: as §1
(§2) Two cubic emulsions with uniform halide composition were precipitated using deionized gelatin. Emulsion C-1 was a AgErI emulsion with a 3% I content and a cubic edge length of 0.47 μm and emulsion C-2 was an AgBr emulsion with a cubic edge length of 0.52 μm. The emulsions were sulfur sensitized by adding 1,3-dicarboxymethyl-1,3-dimethyl-2-thiourea at 40° C.; the temperature was then raised to 60° C. at a rate of 5° C./3 min and the emulsions held for 20 min before cooling to 40° C. The amounts of the sulfur sensitizing compound used were 1.0×10^-5 mole/mole Ag for emulsion C-1, and 6.0×10^-6mole/mole Ag for emulsion C-2. These experimental coating variations contained the hydroxybenzene, 2,4-disulfocatechcol (HB3) at a concentration of 13 mmole/mole Ag, added to the melt before the addition of any further compounds. Some of the variations were then dyed with the sensitizing dye D-II, added from methanol solution. The fragmentable electron donor compounds were then added to the emulsion melts at 40° C. and coatings were prepared and tested as described in Example 1 except that the additional gelatin used to prepare the coatings described in Table VIII was deionized gelatin. Also, the dyed coatings were tested for their response to a spectral exposure as described in Example 3.

[3] = Example 8: spectral sensitivity, cubic emulsion C-1; conditions: dye II 0.44 x10^-3, dyed control=100
Protocol: Additional testing was carried out to determine the response of the coatings described in Table III to a spectral exposure. Each of the coating strips was exposed for 0.1 sec on a wedge spectrographic instrument that covers the wavelength range from 400 to 750 nm. The instrument contains a tungsten light source and a step tablet ranging in density from 0 to 3 density units in 0.3 density steps. After developing exposed strips for 6 min in Kodak Rapid X-ray Developer (KRX), speed was read at 10 nm wavelength intervals at a density of 0.3 above fog. Correction for the instrument's variation in spectral irradiance with wavelength was done with a computer and a plot of log sensitivity vs. wavelength was generated. For this exposure, for each dye used, the relative sensitivity was set equal to 100 for the control coating with no fragmentable two-electron donor compound added.
as §2

[4] = Example 8: photographic speed and fog, 365 nm exposure, cubic emulsion C-2; parameters: Fog: unit not given here
Protocol: as §1, §2

[5] = 0.07 x10^-3 mole/mole Ag, HB3 0, dye I 0.91 x10^-3
[6] = 0.05 x10^-3 mol/mol Ag, no dye, control=100
[7] = 0.16 x10^-3 mol/mol Ag, no dye, control=100

In the case of CCSCCN(c1ccccc1)C(C)C(=O)O (centres unmarked) [Compound S-9, N-(Phenyl)-N-(2-thioethyl-ethyl)alanine sodium salt], the Fog ([1]; 0.0022 x10^-3 mole/mole Ag, HB3 13 x10^-3, dye II 0.86 x10^-3) is reported as 0.24, the S365 ([1]; 0.0022 x10^-3 mole/mole Ag, HB3 13 x10^-3, dye II 0.86 x10^-3, dyed control 68) is reported as 115 and the Fog ([1]; 0.007 x10^-3 mole/mole Ag, HB3 0, dye II 0.86 x10^-3) is reported as 0.77. It also gave a Fog ([1]; 0.007 x10^-3 mole/mole Ag, HB3 13 x10^-3, dye II 0.86 x10^-3) of 0.44, an S365 ([1]; 0.007 x10^-3 mole/mole Ag, HB3 13 x10^-3, dye II 0.86 x10^-3, dyed control 68) of 107 and a Fog [1, 5] of 0.19. For the same compound, the S365 [1, 5] was 159, the Fog ([1]; 0.07 x10^-3 mole/mole Ag, HB3 0, no dye) was 0.21 and the S365 ([1]; 0.07 x10^-3 mole/mole Ag, HB3 0, no dye, control=100) was 170. It also gave a Fog ([1]; 0.07 x10^-3 mole/mole Ag, HB3 13 x10^-3, dye I 0.91 x10^-3) of 0.13, an S365 ([1]; 0.07 x10^-3 mole/mole Ag, HB3 13 x10^-3, dye I 0.91 x10^-3, dyed control 105) of 162 and a Fog ([1]; 0.07 x10^-3 mole/mole Ag, HB3 13 x10^-3, no dye) of 0.13. For the same compound, the S365 ([1]; 0.07 x10^-3 mole/mole Ag, HB3 13 x10^-3, no dye, control=100) was 166, the Fog ([2]; 0.005 x10^-3 mol/mol Ag, dye II 0.44 x10^-3) was 0.18 and the S365 ([2]; 0.005 x10^-3 mol/mol Ag, dye II 0.44 x10^-3, dyed control 105) was 162. It also gave a Fog ([2]; 0.016 x10^-3 mol/mol Ag, dye II 0.44 x10^-3) of 0.21, an S365 ([2]; 0.016 x10^-3 mol/mol Ag, dye II 0.44 x10^-3, dyed control 105) of 191 and a Fog ([2]; 0.05 x10^-3 mol/mol Ag, no dye) of 0.07. The S365 [2, 6] was 229, the Fog ([2]; 0.16 x10^-3 mol/mol Ag, no dye) was 0.07 and the S365 [2, 7] was 234. For the same compound, the “sensitivity increase” value ([2]; both undyed cubic emulsions (C-1 and C-2)) was “approximately a factor of two”, the Sλ ([3]; 0.005 x10^-3 mol/mol Ag) was 145 and the Sλ ([3]; 0.016 x10^-3 mol/mol Ag) was 178. For the same compound, the Fog ([4]; 0.005 x10^-3 mol/mol Ag, dye II 0.40 x10^-3) was 0.16, the S365 ([4]; 0.005 x10^-3 mol/mol Ag, dye II 0.40 x10^-3, dyed control 76) was 141 and the Fog ([4]; 0.016 x10^-3 mol/mol Ag, dye II 0.40 x10^-3) was 0.19. It also gave an S365 ([4]; 0.016 x10^-3 mol/mol Ag, dye II 0.40 x10^-3, dyed control 76) of 166, a Fog ([4]; 0.05 x10^-3 mol/mol Ag, no dye) of 0.06 and an S365 [4, 6] of 204. The Fog ([4]; 0.16 x10^-3 mol/mol Ag, no dye) was 0.06 and the S365 [4, 7] was 209.
